Columns and labels:
[1] = test system: Type II phosphodiesterase, Bovine spleen; assay: Activity of Type II phosphodiesterase, bovine spleen (Table VII); assay type: biochemical; details: 1 mM 4-nitrophenyl ester of the named compound
Procedure: (§1) Enzymic hydrolysis of 4-nitrophenyl esters is quantitated spectrophotometrically by the appearance of the 4-nitrophenolate ion at 400 nm (ε=18,320 M^-^1 cm^-1, pK 7.15) (see Kezdy, F. J. and Bender, M. L., 1962, Biochemistry, Volume 1, page 1097), either continuously above pH 7.0 or discontinuously by raising the assay mixture to pH 9 and inactivating the enzyme by the addition of two volumes of 1 M NaHCO3, 10 mM Na3 PO4, 10 mM Na2 EDTA. Standard assay conditions are 1 mM 4-nitrophenyl phenylphosphonate, 0.1 M Tris, pH 8.0, 30° C.
(§2) Table VII is a comparison of Type I and Type II Phosphodiesterase as follows:
(§3) Substrates were 1 mM solutions of the 4-nitrophenyl esters of the above

[2] = biological target: T1, Type I phosphodiesterase, Bovine Intestine (Bos taurus, UniProt P15396); assay: Activity of Type I phosphodiesterase, bovine intestine (Table VII); assay type: biochemical; details: 1 mM 4-nitrophenyl ester of the named compound
T1 construct: from tissue; host or cells: bovine intestine
T1 sequence (P15396 1-874): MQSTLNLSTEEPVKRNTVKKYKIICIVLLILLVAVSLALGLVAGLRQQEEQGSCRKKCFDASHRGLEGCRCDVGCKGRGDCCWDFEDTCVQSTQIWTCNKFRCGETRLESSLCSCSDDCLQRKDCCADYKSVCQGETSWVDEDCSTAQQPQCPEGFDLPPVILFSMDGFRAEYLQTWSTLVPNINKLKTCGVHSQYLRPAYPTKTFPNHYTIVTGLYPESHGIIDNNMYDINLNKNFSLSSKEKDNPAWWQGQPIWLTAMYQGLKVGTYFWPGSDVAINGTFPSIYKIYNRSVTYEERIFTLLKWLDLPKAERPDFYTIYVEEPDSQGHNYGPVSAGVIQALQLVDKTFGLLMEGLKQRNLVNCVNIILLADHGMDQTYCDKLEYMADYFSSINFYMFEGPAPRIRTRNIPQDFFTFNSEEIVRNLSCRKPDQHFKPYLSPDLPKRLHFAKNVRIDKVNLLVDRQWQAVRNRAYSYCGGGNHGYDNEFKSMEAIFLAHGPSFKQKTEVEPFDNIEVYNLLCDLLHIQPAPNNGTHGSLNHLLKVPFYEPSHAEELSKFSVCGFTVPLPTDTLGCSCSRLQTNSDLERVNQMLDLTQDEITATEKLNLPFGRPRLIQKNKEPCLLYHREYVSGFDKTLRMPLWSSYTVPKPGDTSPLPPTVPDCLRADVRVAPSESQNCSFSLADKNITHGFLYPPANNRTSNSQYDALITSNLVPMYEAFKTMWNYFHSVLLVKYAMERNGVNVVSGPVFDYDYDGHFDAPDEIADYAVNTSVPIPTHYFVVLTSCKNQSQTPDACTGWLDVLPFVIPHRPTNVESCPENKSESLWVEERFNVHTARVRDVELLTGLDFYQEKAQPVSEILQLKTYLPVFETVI
Procedure: as §1, §2, §3

[3] = biological target: T2, purified bovine intestinal phosphodiesterase (Bos taurus, UniProt P15396); assay: Kinetic parameters of hydrolysis by purified phosphonate monoesterase/phosphodiesterase of calf intestinal mucosa (Table VI); assay type: biochemical, bovine (calf); details: 0.1 M Tris pH 8.0, 30° C., 4-nitrophenol measured continuously at 400 nm
T2 sequence (P15396 1-874): T1 sequence (P15396 1-874)
Procedure: as §1
^a Production of 4-nitrophenol was measured continuously at 400 nm in […]

[4] = test system: Type I phosphodiesterase, Snake Venon; assay: Activity of Type I phosphodiesterase, snake venom (Table VII); assay type: biochemical; details: 1 mM 4-nitrophenyl ester of the named compound
Procedure: as §1, §2, §3

[5] = Stability and water solubility of phosphonate monoesters

Compound: Cc1cn([C@H]2C[C@H](OP(=O)(O)Oc3ccc([N+](=O)[O-])cc3)[C@@H](CO)O2)c(=O)[nH]c1=O [4-nitrophenyl 3'-TMP]
- Activity [1]: 168 nmoles min^-^1 mg^-^1
- Activity [2]: 569 nmoles min^-^1 mg^-^1
- Vmax [3]: 1 μmoles min^-^1 mg^-^1
- Activity [4]: 1.9 nmoles min^-^1 mg^-^1

Compound: Cc1cn([C@H]2C[C@H](O)[C@@H](COP(=O)(O)Oc3ccc([N+](=O)[O-])cc3)O2)c(=O)[nH]c1=O [4-nitrophenyl 5'-TMP]
- Activity [1]: 6.9 nmoles min^-^1 mg^-^1
- Activity [2]: 65,700 nmoles min^-^1 mg^-^1
- Activity [4]: 4570 nmoles min^-^1 mg^-^1

Compound: O=[N+]([O-])c1ccc(OP(=O)(O)c2ccccc2)cc1 [4-nitrophenyl phenylphosphonate]
- stability of solutions of the ammonium salt ([5]; concentrations to 0.1 M, 0°-4° C.): stable in concentrations to 0.1 M for several weeks at 0°-4 °C
- stability as the dry ammonium salt ([5]; dry ammonium salt): stable indefinitely as the dry ammonium salt
- stability in solution compared with 4-nitrophenyl phosphate ([5]; in solution): much more stable in solution than is 4-nitrophenyl phosphate

Reference: patent US4041111A, “Phosphonate monoesters and method of preparation” (Purdue Research Foundation, priority 1975, dated 1977)
